# Results from patent publication US20250295639A1, “METHODS FOR TREATING HEART DISEASES” (Cytokinetics, Incorporated, priority 2024, published 2025).
# Tested on: patients with symptomatic oHCM
# Assay: SEQUOIA-HCM: cardiopulmonary exercise testing (CPET), incl. by baseline beta blocker use
# Type: in vivo, human
# Text: The primary objective of this trial was to evaluate the effect of aficamten on exercise capacity in patients with symptomatic oHCM. The indicated endpoint was a change in peak oxygen uptake (pVO2) by cardiopulmonary exercise testing (CPET) from baseline to Week 24. A further secondary objective was to evaluate the effect of aficamten on exercise capacity, as determined by change in total workload during CPET from baseline to Week 24. A further exploratory objective of this trial was to evaluate the effect of aficamten on other CPET parameters, as determined by changes from baseline to Week 24 in: (1) ventilator efficiency (VE/VCO2 slope); (2) circulatory power (VO2× systolic BP); and (3) ventilator anaerobic threshold (VAT). Cardiopulmonary Exercise Testing (CPET). All patients underwent CPET with gas-exchange analysis and the methodology will be standardized across all participating sites, as described in the CPET manual. Testing included continuous ECG monitoring by trained personnel and was performed in an area that was equipped for cardiopulmonary resuscitation. Treadmill was the preferred modality for exercise testing. […] Exercise protocols for both modalities were provided in the CPET manual. Patients had to use the same testing modality for all exercise tests during the trial. Whenever possible, CPET was administered by the same trial personnel using the same equipment and performed after the other trial procedures on that visit day (including echocardiogram, KCCQ, EQ-5D-5L, CGI, PGI-C, NYHA class, SAQ-7, vital signs, ECG, blood sampling, IP administration). Patients naïve to exercise protocols were familiarized with the technique during screening. All CPET testing was symptom-limited and patients were strongly encouraged to achieve maximal exertion and an RER ≥1.05. The reason(s) for termination of sub-maximal exercise tests were documented. A test was identified as being maximal effort if the RER is ≥1.05. The Week 24 CPET was performed at approximately the same time of day (eg, morning, mid-day, afternoon) as the baseline CPET at screening, at a consistent time after the last dose of beta blocker and IP. Whenever possible, patients performed exercise testing between three and ten hours after taking beta blocking agents. CPET End Points. We looked at whether aficamten would improve a novel measure of integrated exercise performance that combines complementary measures previously independently related to oHCM prognosis, and that incorporates both submaximal and maximal exercise capacity. A primary outcome was the change from baseline to week 24 in integrated exercise performance, defined as the 2-component Z-score of pVO2 and ventilatory efficiency (VE/VCO2 slope). Response rates for achieving clinically meaningful thresholds for change in pVO2 and correlations with clinical measures of treatment effect (health status, echocardiographic, cardiac biomarkers) were also assessed. The primary analysis was the change from baseline to Week 24 in integrated exercise performance, normalized to a composite of Z-scores for pVO2 and VE/VCO2 slope to capture physiologic responses to maximal and submaximal exercise. The Z-score was derived by reversing the directionality of VE/VCO2 slope such that increases in both Z-score components indicate benefit and equal weights were used for each Z-score component. Secondary end points included assessments for changes from baseline to week 24 in CPET-derived measures during 2 phases of exercise performance: (1) peak exercise (pVO2, peak workload, peak metabolic equivalents [METS], peak circulatory power [VO2× systolic blood pressure], exercise duration, peak respiratory exchange ratio [RER], heart rate reserve, peak heart rate, O2 pulse at peak exercise, proportionate pulse pressure); and (2) during submaximal exercise (pre-anaerobic threshold VE/VCO2 slope, VE/VCO2 slope throughout exercise, ventilatory power, ventilatory anaerobic threshold, and aerobic efficiency). Beta Blocker Co-administration. […]
# [1] = Aficamten arm, change baseline to week 24
# [2] = Baseline Beta Blocker Use: No, Baseline
# [3] = Baseline Beta Blocker Use: No, Week 24
smiles,measurement,setting,value
"CCc1nc(-c2ccc3c(c2)CC[C@H]3NC(=O)c2cnn(C)c2)no1 [aficamten, (R)—N-(5-(5-ethyl-1,2,4-oxadiazol-3-yl)-2,3-dihydro-1H-inden-1-yl)-1-methyl-1H-pyrazole-4-carboxamide]",Aerobic efficiency,"Aficamten arm, Week 24",8.6 mL/min/watt
same,Exercise duration,"Aficamten arm, Week 24",12.4 min
same,Heart rate reserve,"Aficamten arm, Week 24",66
same,Integrated 2 component Z-score metric,"Aficamten arm, Week 24",0.16
same,Peak circulatory power,"Aficamten arm, Week 24",3550 mmHg*mL/min/kg
same,Peak heart rate,"Aficamten arm, Week 24",135 beats/min
same,Peak respiratory exchange ratio,"Aficamten arm, Week 24",1.20
same,Peak workload,"Aficamten arm, Week 24",134 watt
same,Proportionate pulse pressure (peak),"Aficamten arm, Week 24",0.51
same,Proportionate pulse pressure (rest),"Aficamten arm, Week 24",0.37
same,Ventilatory anaerobic threshold,"Aficamten arm, Week 24",958 mL
same,Ventilatory efficiency pre-anaerobic threshold (VE/VCO2 slope),"Aficamten arm, Week 24",27.4
same,Ventilatory efficiency throughout exercise (VE/VCO2 slope),"Aficamten arm, Week 24",30.9
same,Ventilatory power,"Aficamten arm, Week 24",5.9 mmHg
same,pVO2,"Aficamten arm, Week 24",20.2 mL/kg/min
same,"Aerobic efficiency, Abs. diff.",[1],0.3 mL/min/watt
same,"Exercise duration, Abs. diff.",[1],1.2 min
same,"Heart rate reserve, Abs. diff.",[1],7
same,"Integrated 2 component Z-score metric, Abs. diff.",[1],+0.17±0.51
same,"O2 pulse at peak exercise, Abs. diff.",[1],0.00 mL/beat
same,"Peak circulatory power, Abs. diff.",[1],537 mmHg*mL/min/kg
same,"Peak heart rate, Abs. diff.",[1],8 beats/min
same,"Peak respiratory exchange ratio, Abs. diff.",[1],0.01
same,"Peak workload, Abs. diff.",[1],14 watt
same,"Proportionate pulse pressure (peak), Abs. diff.",[1],0.02
same,"Proportionate pulse pressure (rest), Abs. diff.",[1],−0.02
same,"Ventilatory anaerobic threshold, Abs. diff.",[1],60 mL
same,"Ventilatory efficiency pre-anaerobic threshold (VE/VCO2 slope), Abs. diff.",[1],−1.9
same,"Ventilatory efficiency throughout exercise (VE/VCO2 slope), Abs. diff.",[1],−2.2
same,"Ventilatory power, Abs. diff.",[1],0.8 mmHg
same,"pVO2, Abs. diff.",[1],1.8 mL/kg/min
same,"Integrated 2 component Z-score metric, Abs. diff.","Aficamten arm, change baseline to week 24, listed as Aficamten",0.17
same,patients with Any Deterioration (small/moderate/large) in pVO2,"Aficamten, 24 weeks",(26.1%)
same,"patients with Any Deterioration (small/moderate/large) in pVO2, number","Aficamten, 24 weeks",37
same,patients with Any Improvement (small/moderate/large) in pVO2,"Aficamten, 24 weeks",(73.9%)
same,"patients with Any Improvement (small/moderate/large) in pVO2, number","Aficamten, 24 weeks",105
same,patients with Large Improvement in pVO2 (≥3.0 mL/kg/min),"Aficamten, 24 weeks",32%
same,"patients with Large Improvement in pVO2 (≥3.0 mL/kg/min), number","Aficamten, 24 weeks",46
same,patients with Moderate/Large Improvement in pVO2 (≥1.5 mL/kg/min),"Aficamten, 24 weeks",(52.8%)
same,"patients with Moderate/Large Improvement in pVO2 (≥1.5 mL/kg/min), number","Aficamten, 24 weeks",75
same,patients with Large Improvement in pVO2 (≥3.0 mL/kg/min),"Aficamten, 24 weeks, listed as Aficamten",(32.4%)
same,"Change in Exercise Duration on CPET from Baseline to Week 24, LS Mean (SE)",Baseline Beta Blocker Use: No,1.2 (0.26) minutes
same,"Change in Exercise Duration on CPET from Baseline to Week 24, LS Mean Diff vs. Placebo (SE)",Baseline Beta Blocker Use: No,1.1 (0.38) minutes
same,"Change in Exercise Duration on CPET from Baseline to Week 24, Mean (SD)",Baseline Beta Blocker Use: No,1.3 (2.34) minutes
same,"Change in Exercise Duration on CPET from Baseline to Week 24, Median",Baseline Beta Blocker Use: No,1.1 min
same,"Change in peak METs from Baseline to Week 24, LS Mean (SE)",Baseline Beta Blocker Use: No,0.62 (0.113) METs
same,"Change in peak METs from Baseline to Week 24, LS Mean Diff vs. Placebo (SE)",Baseline Beta Blocker Use: No,0.55 (0.162) METs
same,"Change in peak METs from Baseline to Week 24, Mean (SD)",Baseline Beta Blocker Use: No,0.65 (1.029) METs
same,"Change in peak METs from Baseline to Week 24, Median",Baseline Beta Blocker Use: No,0.47 METs
same,"Exercise Duration on CPET, Baseline, Mean (SD)",[2],11.0 (3.52) minutes
same,"Exercise Duration on CPET, Baseline, Median",[2],10.3 min
same,"peak METs (pVO2/3.5 (mL/kg/min)) on CPET, Baseline, Mean (SD)",[2],5.27 (1.314) METs
same,"peak METs (pVO2/3.5 (mL/kg/min)) on CPET, Baseline, Median",[2],5.11 METs
same,"Exercise Duration on CPET, Week 24, Mean (SD)",[3],12.2 (4.39) minutes
same,"Exercise Duration on CPET, Week 24, Median",[3],11.3 min
same,"peak METs (pVO2/3.5 (mL/kg/min)) on CPET, Week 24, Mean (SD)",[3],5.89 (1.481) METs
